In US6602860B1, “Crystalline mixtures of partial methyl ethers of beta-cyclodextrin and related compounds” (priority 1999, dated 2003):

Assay: Solubilizing potency: solubility of hydrocortisone in aqueous solutions of cyclodextrin derivatives
Format: physicochemical
Settings: 5% (w/w) aqueous solutions of the derivative; P264 and P258 crystalline components used without heat drying

Heptakisdimethylbetacyclodextrin
Solubility Of Hydrocortisone: 8800 µg/mL
